Where two headings read alike, the source gives them in different places.
Columns and labels:
[1] = molecular target: T1, β5 subunit of the human constitutive proteasome (CPS) (Homo sapiens, UniProt P28074); assay: β5 inhibition assay, human constitutive proteasome (Suc-LLVY-AMC); assay type: biochemical; conditions: IC50 class, Suc-LLVY-AMC substrate
T1 construct: purchased Boston Biochem E-360
Description: The enzymatic activity of the β5 subunit of the human constitutive proteasome (CPS) is analyzed. In another assay, which differs from the assay of the human constitutive proteasome only in using the human immunoproteasome (IPS) the enzymatic activity of the β5 subunit of the human immunoproteasome (IPS) is analyzed. […] Inhibition is indicated as IC50 [nM] (“-”=not measured).

[2] = molecular target: T2, β5 subunit of the human immunoproteasome (IPS) (Homo sapiens, UniProt P28062); assay: β5 inhibition assay, human immunoproteasome (Suc-LLVY-AMC); assay type: biochemical; conditions: IC50 class, Suc-LLVY-AMC substrate
T2 construct: purchased Boston Biochem E-370
Outline: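 Human immunoproteasome (1 nM final) was preincubated 10 min at RT with compound in 100 mM HEPES pH 7.5, 50 mM NaCl, 0.02% SDS, 1 mM DTT. Suc-LLVY-AMC (22.6 μM final) was then added for 4 h at RT in the dark. After stopping with 1 μM bortezomib, AMC fluorescence was read (ex 355/em 460 nm).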

[3] = system: A549 (human lung carcinoma cell line); assay: Glo assay of A549 cells (Table 3; ProteasomeGlo plating scheme); assay type: cell-based; conditions: Homo sapiens
Outline: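 Compound treatment lasts 105 minutes at 37° C. under 5% CO2. Suc-LLVY-Glo substrate premixed with detection reagent (60 min at room temperature) is then added directly to the cells, and luminescence after 10-15 min in the dark gives the IC50 in nM.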

[4] = system: Hs 746T (human gastric carcinoma cell line); assay: 48 hr CTG viability assay, Hs 746T; assay type: cell-based; conditions: Hs746T
Outline: (§1)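 Growth inhibition by compound over 48 h; IC50 (nM) derived from duplicate CellTiter-Glo luminescence readings across 0.0015–10 uM.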

[5] = system: MM1 S (B lymphoblast cell line); assay: 48 hr CTG viability assay, MM1S; assay type: cell-based; conditions: Homo sapiens
Outline: as §1

[6] = system: RPMI 8226 (B lymphocyte cell line, multiple myeloma); assay: 48 hr CTG viability assay, RPMI 8226; assay type: cell-based; conditions: Homo sapiens
Outline: as §1

[7] = A549 cells, read-out: PGLo A549
[8] = 48 hr CTG, read-out: Hs 746T IC50
[9] = RPMI-8226, 48 hr CTG, read-out: RPMI-8226 IC50

Row | IC50 [1] [nM] | IC50 [2] [nM] | IC50 [3, 7] [nM] | IC50 [4, 8] [nM] | IC50 ([5]; 48 hr CTG, read-out: MM1S IC50) [nM] | IC50 [6, 9] [nM] | SMILES | IC50 ([3]; A549, read-out: PGLo A549 [nM]) [nM] | IC50 ([4]; 48 h, read-out: Hs 746T IC50 [nM]) [nM] | IC50 ([5]; 48 h, read-out: MM1S IC50 [nM]) [nM] | IC50 ([6]; RPMI-8226, 48 h, read-out: RPMI-8226 IC50 [nM]) [nM]
1 | < 100 | < 100 | < 100 | < 100 | < 100 | < 100 | Cc1ccc2cc1CNC(=O)[C@H](CCc1ccccc1)NC(=O)[C@@H](NC(=O)CCOC1CC3(C1)CN(C)C3)CC(=O)N1CCCC(CCO2)C1 (stereo partly drawn) [Compound 710, 3-((2-methyl-2-azaspiro[3.3]heptan-6-yl)oxy)-N-((9S,12S)-5^4-methyl-8,11,14-trioxo-9-phenethyl-4-oxa-7,10-diaza-1(3,1)-piperidina-5(1,3)-benzenacyclotetradecaphane-12-yl)propanamide] |  |  |  | 
2 | < 100 | < 100 | < 100 | < 100 | < 100 | < 100 | Cc1ccc2cc1CNC(=O)[C@H](CCc1ccccc1)NC(=O)[C@@H](NC(=O)CCN1CCC3(CCC3)CC1)CC(=O)N1CCCC(CCO2)C1 (stereo partly drawn) [Compound 638, N-((9S,12S)-5^4-methyl-8,11,14-trioxo-9-phenethyl-4-oxa-7,10-diaza-1(3,1)-piperidina-5(1,3)-benzenacyclotetradecaphane-12-yl)-3-(7-azaspiro[3.5]nonan-7-yl)propanamide] |  |  |  | 
3 | < 100 | < 100 | < 100 | < 100 | < 100 | < 100 | Cc1ccc2cc1CNC(=O)[C@H](CCc1ccccc1)NC(=O)[C@@H](NC(=O)C1CCCCC1)CC(=O)N1CCCC(CCO2)C1 (stereo partly drawn) [Compound 643, N-((9S,12S)-5^4-methyl-8,11,14-trioxo-9-phenethyl-4-oxa-7,10-diaza-1(3,1)-piperidina-5(1,3)-benzenacyclotetradecaphane-12-yl)cyclohexanecarboxamide] |  |  |  | 
4 | 1000 to 5000 | 1000 to 5000 | > 5000 | > 5000 | 1000 to 5000 | 1000 to 5000 | Cc1ccc2cc1CNC(=O)[C@H](CCc1ccccc1)NC(=O)[C@@H](NC(=O)C(C)(C)CO)CC(=O)NCCCO2 [Compound 736, 3-hydroxy-2,2-dimethyl-N-((9S,12S)-1^4_ methyl-7,10,13-trioxo-12-phenethyl-2-oxa-6,11,14-triaza-1(1,3)-benzenacyclopentadecaphane-9-yl)propanamide] |  |  |  | 
5 | < 100 | < 100 | < 100 | < 100 | < 100 | < 100 | Cc1ccc2cc1CNC(=O)[C@H](CCc1ccc(N)cc1)NC(=O)[C@@H](NC(=O)Cc1cn3ccsc3n1)CC(=O)N1CCCC(CCO2)C1 (stereo partly drawn) [Compound 708, N-((9S,12S)-9-(4-aminophenethyl)-5^4-methyl-8,11,14-trioxo-4-oxa-7,10-diaza-1(3,1)-piperidina-5(1,3)-benzenacyclotetradecaphane-12-yl)-2-(imidazo[2,1-b]thiazol-6-yl)acetamide] |  |  |  | 
6 | < 100 | < 100 | < 100 | < 100 | < 100 | < 100 | CC(=O)N[C@H]1CC(=O)N2CCCC(CCOc3ccc(C)c(c3)CNC(=O)[C@H](C3Cc4ccccc4C3)NC1=O)C2 (stereo partly drawn) [Compound 685, N-((9S,12S)-9-(2,3-dihydro-1H-inden-2-yl)-5^4-methyl-8,11,14-trioxo-4-oxa-7,10-diaza-1(3,1)-piperidina-5(1,3)-benzenacyclotetradecaphane-12-yl)acetamide] |  |  |  | 
7 | 100 to 500 | < 100 | 1000 to 5000 | 1000 to 5000 | 100 to 500 | 500 to 1000 | Cc1ccc2cc1CNC(=O)[C@H](CCc1ccccc1)NC(=O)[C@@H](N1CCCC1)CC(=O)N1CCCC(CCO2)C1 (stereo partly drawn) [Compound 731, (9S,12S)-5^4-methyl-9-phenethyl-12-(pyrrolidin-1-yl)-4-oxa-7,10-diaza-1(3,1)-piperidina-5(1,3)-benzenacyclotetradecaphane-8,11,14-trione] |  |  |  | 
8 | < 100 | < 100 | < 100 | < 100 | < 100 | < 100 | Cc1ccc2cc1CNC(=O)[C@H](CCc1cccnc1)NC(=O)[C@@H](NC(=O)Cc1ccc(N)cc1C)CC(=O)N1CCCC(CCO2)C1 (stereo partly drawn) [Compound 645, 2-(4-amino-2-methylphenyl)-N-((9S,12S)-5^4-methyl-8,11,14-trioxo-9-(2-(pyridin-3-yl)ethyl)-4-oxa-7,10-diaza-1(3,1)-piperidina-5(1,3)-benzenacyclotetradecaphane-12-yl)acetamide] |  |  |  | 
9 | < 100 | < 100 | < 100 | < 100 | < 100 | < 100 | Cc1ccc2cc1CNC(=O)[C@H](CCc1ccccc1)NC(=O)[C@@H](NC(=O)C13CC(F)(C1)C3)CC(=O)N1CCCC(CCO2)C1 (stereo partly drawn) [Compound 633, 3-fluoro-N-((9S,12S)-5^4-methyl-8,11,14-trioxo-9-phenethyl-4-oxa-7,10-diaza-1(3,1)-piperidina-5(1,3)-benzenacyclotetradecaphane-12-yl)bicyclo[1.1.1]pentane-1-carboxamide] |  |  |  | 
10 | < 100 | < 100 | < 100 | < 100 | < 100 | < 100 | Cc1ccc2cc1CNC(=O)[C@H](CCc1ccccc1)NC(=O)[C@@H](NC(=O)Cc1ccccc1)CCOC(=O)N1CCCC(CCO2)C1 (stereo partly drawn) [Compound 624, N-((9S,12S)-5^4-methyl-8,11,16-trioxo-9-phenethyl-4,15-dioxa-7,10-diaza-1(3,1)-piperidina-5(1,3)-benzenacyclohexadecaphane-12-yl)-2-phenylacetamide] |  |  |  | 
11 | < 100 | < 100 | < 100 | < 100 | < 100 | < 100 | COc1cccc(OCCC(=O)N[C@H]2CC(=O)N3CCCC(CCOc4ccc(C)c(c4)CNC(=O)[C@H](CCc4ccccc4)NC2=O)C3)c1 (stereo partly drawn) [Compound 587, 3-(3-methoxyphenoxy)-N-((9S,12S)-5^4-methyl-8,11,14-trioxo-9-phenethyl-4-oxa-7,10-diaza-1(3,1)-piperidina-5(1,3)-benzenacyclotetradecaphane-12-yl)propanamid] |  |  |  | 
12 | 1000 to 5000 | 100 to 500 | 1000 to 5000 | > 5000 | 1000 to 5000 | 1000 to 5000 | Cc1ccc2cc1CNC(=O)[C@H](CCc1ccccc1)NC(=O)[C@@H](N1CCCCC1=O)CC(=O)N1CCCC(CCO2)C1 (stereo partly drawn) [Compound 734, (9S,12S)-5^4-methyl-12-(2-oxopiperidin-1-yl)-9-phenethyl-4-oxa-7,10-diaza-1(3,1)-piperidina-5(1,3)-benzenacyclotetradecaphane-8,11,14-trione] |  |  |  | 
13 | < 100 | < 100 | 100 to 500 | 500 to 1000 | 100 to 500 | 100 to 500 | Cc1ccc2cc1CNC(=O)[C@H](CCc1ccccc1)NC(=O)[C@@H](NC(=O)C(C)(C)CO)CCC(=O)NCCCCO2 [Compound 726, 3-hydroxy-2,2-dimethyl-N-((11S,14S)-1^4_ methyl-8,12,15-trioxo-1^4-phenethyl-2-oxa-7,13,16-triaza-1(1,3)-benzenacycloheptadecaphane-11-yl)propanamide] |  |  |  | 
14 | < 100 | < 100 | 100 to 500 | 100 to 500 | < 100 | < 100 | Cc1ccc2cc1CNC(=O)[C@H](CCc1ccccc1)NC(=O)[C@@H](NC1CC3C=CC1C3)CC(=O)N1CCCC(CCO2)C1 (stereo partly drawn) [Compound 711, (9S,12S)-12-(bicyclo[2.2.1]hept-5-en-2-ylamino)-5^4-methyl-9-phenethyl-4-oxa-7,10-diaza-1(3,1)-piperidina-5(1,3)-benzenacyclotetradecaphane-8,11,14-trione] |  |  |  | 
15 | < 100 | < 100 | 100 to 500 | 1000 to 5000 | 100 to 500 | 100 to 500 | Cc1cn([C@H]2CC(=O)N3CCCC(CCOc4ccc(C)c(c4)CNC(=O)[C@H](CCc4ccccc4)NC2=O)C3)nn1 (stereo partly drawn) [Compound 740, (9S,12S)-5^4-methyl-12-(4-methyl-1H-1,2,3-triazol-1-yl)-9-phenethyl-4-oxa-7,10-diaza-1(3,1)-piperidina-5(1,3)-benzenacyclotetradecaphane-8,11,14-trione] |  |  |  | 

Row | SMILES | IC50 [1] [nM] | IC50 [2] [nM] | IC50 [3, 7] [nM] | IC50 [4, 8] [nM] | IC50 ([5]; 48 hr CTG, read-out: MM1S IC50) [nM] | IC50 [6, 9] [nM] | IC50 ([3]; A549, read-out: PGLo A549 [nM]) [nM] | IC50 ([4]; 48 h, read-out: Hs 746T IC50 [nM]) [nM] | IC50 ([5]; 48 h, read-out: MM1S IC50 [nM]) [nM] | IC50 ([6]; RPMI-8226, 48 h, read-out: RPMI-8226 IC50 [nM]) [nM]
16 | Cc1ccc2cc1CNC(=O)[C@H](CCc1ccccc1)NC(=O)[C@@H](NC(=O)Cc1ccccc1)CCN(C)C(=O)N1CCCC(CCO2)C1 (stereo partly drawn) [Compound 696, N-((9S,12S)-5^4,15-dimethyl-8,11,16-trioxo-9-phenethyl-4-oxa-7,10,15-triaza-1(3,1)-piperidina-5(1,3)-benzenacyclohexadecaphane-12-yl)-2-phenylacetamide] | < 100 | < 100 |  |  |  |  | < 100 | < 100 | < 100 | < 100
